Data taken from PubChem BioAssay (NCI).
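Five compound concentrations were applied to cells in 96-well plates for 48 hours; endpoints were derived by simple linear interpolation of the resulting dose-response curve. TGI marks complete inhibition of growth.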

Experiments:
Assay in all cases: NCI-60 cell line screen, 48 h
786-0 renal = test system: 786-0 renal
A498 renal = test system: A498 renal
A549 NSCLC = test system: A549 NSCLC
ACHN renal = test system: ACHN renal
BT-549 breast = test system: BT-549 breast
CCRF-CEM leukemia = test system: CCRF-CEM leukemia
DU-145 prostate = test system: DU-145 prostate
EKVX NSCLC = test system: EKVX NSCLC
HCC-2998 colon = test system: HCC-2998 colon
HCT-116 colon = test system: HCT-116 colon
HCT-15 colon = test system: HCT-15 colon
HL-60(TB) leukemia = test system: HL-60(TB) leukemia
HOP-62 NSCLC = test system: HOP-62 NSCLC
HOP-92 NSCLC = test system: HOP-92 NSCLC
HS 578T breast = test system: HS 578T breast
HT29 colon = test system: HT29 colon
IGROV1 ovarian = test system: IGROV1 ovarian
K-562 leukemia = test system: K-562 leukemia
KM12 colon = test system: KM12 colon
LOX IMVI melanoma = test system: LOX IMVI melanoma
M14 melanoma = test system: M14 melanoma
MALME-3M melanoma = test system: MALME-3M melanoma
MCF7 breast = test system: MCF7 breast
MDA-MB-231 breast = test system: MDA-MB-231 breast
MDA-MB-435 = test system: MDA-MB-435
MDA-N = test system: MDA-N
MOLT-4 leukemia = test system: MOLT-4 leukemia
NCI-H226 lung = test system: NCI-H226 lung
NCI-H23 lung = test system: NCI-H23 lung
NCI-H460 lung = test system: NCI-H460 lung
OVCAR-3 ovarian = test system: OVCAR-3 ovarian
OVCAR-5 ovarian = test system: OVCAR-5 ovarian
OVCAR-8 ovarian = test system: OVCAR-8 ovarian
PC-3 prostate = test system: PC-3 prostate
RPMI-8226 leukemia = test system: RPMI-8226 leukemia
RXF 393 renal = test system: RXF 393 renal
SF-268 CNS = test system: SF-268 CNS
SF-295 CNS = test system: SF-295 CNS
SF-539 CNS = test system: SF-539 CNS
SK-MEL-2 melanoma = test system: SK-MEL-2 melanoma
SK-MEL-28 melanoma = test system: SK-MEL-28 melanoma
SK-MEL-5 melanoma = test system: SK-MEL-5 melanoma
SK-OV-3 ovarian = test system: SK-OV-3 ovarian
SN12C renal = test system: SN12C renal
SNB-19 CNS = test system: SNB-19 CNS
SNB-75 CNS = test system: SNB-75 CNS
SR leukemia = test system: SR leukemia
SW-620 colon = test system: SW-620 colon
T-47D breast = test system: T-47D breast
TK-10 renal = test system: TK-10 renal
U251 CNS = test system: U251 CNS
UACC-257 melanoma = test system: UACC-257 melanoma
UACC-62 melanoma = test system: UACC-62 melanoma
UO-31 renal = test system: UO-31 renal
CAKI-1 renal = test system: CAKI-1 renal
COLO 205 colon = test system: COLO 205 colon
NCI-H522 lung = test system: NCI-H522 lung
NCI/ADR-RES ovarian = test system: NCI/ADR-RES ovarian
OVCAR-4 ovarian = test system: OVCAR-4 ovarian

Measured: TGI

C#CC(C)(C)OC(=O)C(=[N+]=[N-])C(C)=O
not listed: CAKI-1 renal | COLO 205 colon | NCI-H522 lung | NCI/ADR-RES ovarian | OVCAR-4 ovarian
> 10 µM: all other assays above

O=C(O/C=C\OC1CCCC1(c1ccccc1)c1ccccc1)c1ccccc1 (configuration not stated)
14.1 µM: SF-268 CNS
34.8 µM: EKVX NSCLC
31.1 µM: OVCAR-5 ovarian
3.22 µM: LOX IMVI melanoma
6.17 µM: MDA-MB-231 breast
34.9 µM: SF-295 CNS
23.6 µM: HS 578T breast
23.8 µM: SK-MEL-5 melanoma
28.9 µM: SNB-19 CNS
36.9 µM: HOP-62 NSCLC
16.8 µM: UACC-62 melanoma
6.44 µM: RPMI-8226 leukemia
13.7 µM: SN12C renal
88.8 µM: NCI-H460 lung
6.52 µM: HCT-116 colon
9.32 µM: MDA-N
> 63.6 µM: CAKI-1 renal
14 µM: 786-0 renal
43 µM: NCI-H522 lung
33.1 µM: KM12 colon
33 µM: UACC-257 melanoma
12.4 µM: U251 CNS
6.67 µM: MCF7 breast
15 µM: RXF 393 renal | SK-MEL-2 melanoma
> 31 µM: MOLT-4 leukemia
7.42 µM: T-47D breast
21.3 µM: OVCAR-3 ovarian
5.72 µM: HCT-15 colon
11.3 µM: SW-620 colon
9.08 µM: M14 melanoma
13.6 µM: DU-145 prostate | PC-3 prostate
13.8 µM: HT29 colon
3.84 µM: UO-31 renal
4.68 µM: HL-60(TB) leukemia
> 49.4 µM: HCC-2998 colon
4.58 µM: BT-549 breast
20.9 µM: SNB-75 CNS
9.37 µM: IGROV1 ovarian
18.3 µM: SK-MEL-28 melanoma
31.5 µM: COLO 205 colon
4.97 µM: HOP-92 NSCLC
> 68.5 µM: A549 NSCLC
9.8 µM: OVCAR-4 ovarian
43.2 µM: NCI-H226 lung
5.89 µM: CCRF-CEM leukemia
8.99 µM: NCI/ADR-RES ovarian
12.1 µM: OVCAR-8 ovarian
13.9 µM: ACHN renal
30.5 µM: SK-OV-3 ovarian
> 36 µM: K-562 leukemia
6.07 µM: NCI-H23 lung
64.3 µM: A498 renal
13.5 µM: SF-539 CNS
17.9 µM: TK-10 renal

CCCCCC(=O)CCCCCCCC(O)CC(=O)OCC (configuration not stated)
not listed: EKVX NSCLC | RXF 393 renal | SF-295 CNS | SK-MEL-2 melanoma | SK-OV-3 ovarian | SNB-75 CNS | UACC-62 melanoma | COLO 205 colon | OVCAR-4 ovarian
> 100 µM: all other assays above

COc1ccc2[nH]c3c(c2c1)CC(=S)N1CCCC(CC3=O)C1 (configuration not stated)
81 µM: RXF 393 renal
92.6 µM: NCI-H460 lung
81.2 µM: SK-MEL-2 melanoma
not listed: HL-60(TB) leukemia | K-562 leukemia | LOX IMVI melanoma | MOLT-4 leukemia | SF-539 CNS | SR leukemia | NCI-H522 lung
> 100 µM: all other assays above
